Measurements taken from patent publication US9095136B2, “2-IODO imidazole-derivatives” (BAYER INTELLECTUAL PROPERTY GMBH, priority 2011, dated 2015).
Several values for one entry are separate records, joined by “and”; a condition that tells them apart may be missing. Equal values may be shown once.

Key:
Alternaria solani = assay: Example A: Alternaria test (tomato)/protective; format: in vivo; settings: protective, 500 ppm, evaluation 7 days after inoculation
Experimental: Solvent: 49 parts by weight of N,N-dimethylformamide Emulsifier: 1 part by weight of alkylaryl polyglycol ether To produce a suitable preparation of active compound, 1 part by weight of active compound is mixed with the stated amounts of solvent and emulsifier, and the concentrate is diluted with water to the desired concentration. […] The plants then remain at 96% rel. atmospheric humidity and a temperature of 20° C.

Uromyces appendiculatus [1] = assay: Example E: Uromyces test (bean)/protective; format: in vivo; settings: protective, 10 ppm, evaluation 10 days after inoculation
Experimental: Solvents: 24.5 parts by weight of acetone • 24.5 parts by weight of dimethylacetamide Emulsifier: 1 part by weight of alkylaryl polyglycol ether To produce a suitable preparation of active compound, 1 part by weight of active compound is mixed with the stated amounts of solvent and emulsifier, and the concentrate is diluted with water to the desired concentration. To test for protective activity, young plants are sprayed with the preparation of active compound at the stated application rate. […] The plants are then placed in a greenhouse at about 21° C. and a relative atmospheric humidity of about 90%.

[2] = tested on: Blumeria graminis f.sp. hordei; assay: Example G: Blumeria graminis test (barley)/protective; format: in vivo; settings: protective, 500 ppm, evaluation 7 days after inoculation
Experimental: (§1) Solvent: 49 parts by weight of N,N-dimethylacetamide Emulsifier: 1 part by weight of alkylaryl polyglycol ether To produce a suitable preparation of active compound, 1 part by weight of active compound is mixed with the stated amounts of solvent and emulsifier, and the concentrate is diluted with water to the desired concentration. To test for protective activity, young plants are sprayed with the preparation of active compound at the stated application rate. After the spray coating has dried on, the plants are dusted with spores of Blumeria graminis f.sp. hordei.

Pyrenophora teres = assay: Example K: Pyrenophora teres test (barley)/protective; format: in vivo; settings: protective, 500 ppm, evaluation 8 days after inoculation
Experimental: as §1, with “sprayed” for “dusted”, “a spore suspension” for “spores”, “Pyrenophora teres.” for “Blumeria graminis f.sp. hordei.”

Puccinia triticina = assay: Example L: Puccinia triticina test (wheat)/protective; format: in vivo; settings: protective, 500 ppm, evaluation 8 days after inoculation
Experimental: as §1, with “sprayed” for “dusted”, “spores with a spore suspension” for “spores”, “Puccinia triticina.” for “Blumeria graminis f.sp. hordei.”

Pyricularia oryzae = format: in vivo; settings: rice, preventative, 500 ppm, evaluation 6 days after inoculation
Puccinia recondita = assay: Example T: preventative in vivo test with Puccinia recondita (brown rust on wheat); settings: 500 ppm, evaluation 10 days after inoculation
Experimental: The active compounds tested are prepared by homogenization in a mixture of acetone/Tween/DMSO and then diluted with water to the desired active compound concentration. Wheat plants (cultivar “Scipion”), sown in a 50/50 peat/pozzolana soil substrate and cultivated at 22° C. (12 h)/20° C. (12 h), are treated at the 1-leaf stage (height 10 cm) by spraying with the active compound, prepared as above. As a control, plants are treated with the mixture of acetone/Tween/DMSO/water without the active compound. After 24 hours, the plants are inoculated by spraying the leaves with an aqueous suspension of Puccinia recondita spores.

Septoria tritici [3] = assay: Example U: preventative in vivo test with Septoria tritici (leaf blotch disease on wheat); settings: 500 ppm, evaluation 21 to 28 days after inoculation
Experimental: The active compounds tested are prepared by homogenization in a mixture of acetone/Tween/DMSO and then diluted with water to the desired active compound concentration. Wheat plants (cultivar “Scipion”), sown in a 50/50 peat/pozzolana soil substrate and cultivated at 22° C. (12 h)/20° C. (12 h), are treated at the 1-leaf stage (height 10 cm) by spraying with the active compound, prepared as above. As a control, plants are treated with the mixture of acetone/Tween/DMSO/water without the active compound. After 24 hours, the plants are inoculated by spraying the leaves with an aqueous suspension of cryogenically preserved Septoria tritici spores.

Uromyces appendiculatus [4] = assay: Example W: preventative in vivo test with Uromyces appendiculatus (bean rust); settings: 500 ppm, evaluation 10 days after inoculation
Experimental: The active compounds tested are prepared by homogenization in a mixture of acetone/Tween/DMSO and then diluted with water to the desired active compound concentration. Bean plants (cultivar “Saxa”), sown in a 50/50 peat/pozzolana soil substrate and cultivated at 24° C., are treated at the 2-leaf stage (height 9 cm) by spraying with the active compound, prepared as above. As a control, plants are treated with the mixture of acetone/Tween/DMSO/water without the active compound. After 24 hours, the plants are inoculated by spraying the leaves with an aqueous suspension of Uromyces appendiculatus spores.

Septoria tritici [5] = assay: Example Z: Septoria tritici test (wheat)/protective, comparison; format: in vivo; settings: protective, application rate 250 ppm, evaluation 21 days after inoculation
Experimental: Solvent: 49 parts by weight of N,N-dimethylacetamide Emulsifier: 1 part by weight of alkylaryl polyglycol ether To produce a suitable preparation of active compound, 1 part by weight of active compound or active compound combination is mixed with the stated amounts of solvent and emulsifier, and the concentrate is diluted with water to the desired concentration. To test for protective activity, young plants are sprayed with the preparation of active compound or active compound combination at the stated application rate. After the spray coating has dried on, the plants are sprayed with a spore suspension of Septoria tritici.

Compound: OC(Cc1ccccc1Cl)(Cn1ccnc1I)C1(Cl)CC1 (stereo not shown) [Example 1, 2-(1-chlorocyclopropyl)-1-(2-chlorophenyl)-3-(2-iodo-1H-imidazol-1-yl)propan-2-ol]
- Eff. % (Alternaria solani): 88%
- Eff. % (Uromyces appendiculatus [1]): 100% and 88%
- Eff. % [2]: 100%
- Eff. % (Pyrenophora teres): 100%
- Eff. % (Puccinia triticina): 100%
- Efficacy % (Pyricularia oryzae): 100%
- Efficacy % (Puccinia recondita): 100%
- Efficacy % (Septoria tritici [3]): 100%
- Efficacy % (Uromyces appendiculatus [4]): 100%
- Efficacy in % (Septoria tritici [5]): 86%
